Data as given in ChEMBL document CHEMBL3046407, “Toxicity of monoterpenes against larvae and adults of Colorado potato beetle, Leptinotarsa decemlineata Say (Coleoptera: Chrysomelidae)” (2007).

Legend:
Format in all cases: functional
[1] = tested on: Leptinotarsa decemlineata; assay: Insecticidal activity against first-instar larval stage of Leptinotarsa decemlineata infested potato leaves assessed as mortality at 10 ul after 48 hr relative to control
[2] = tested on: Leptinotarsa decemlineata; assay: Insecticidal activity against first-instar larval stage of Leptinotarsa decemlineata infested potato leaves assessed as mortality at 20 ul after 48 hr relative to control
[3] = tested on: Leptinotarsa decemlineata; assay: Insecticidal activity against third-instar larval stage of Leptinotarsa decemlineata infested potato leaves assessed as mortality at 20 ul after 48 hr (reference value: […] +/- 3.3%)
[4] = tested on: Leptinotarsa decemlineata; assay: Insecticidal activity against third-instar larval stage of Leptinotarsa decemlineata infested potato leaves assessed as mortality at 10 ul after 48 hr (reference value: […] +/- 3.3%)
[5] = tested on: Leptinotarsa decemlineata; assay: Insecticidal activity against first-instar larval stage of Leptinotarsa decemlineata infested potato leaves assessed as mortality at 20 ul after 24 hr relative to control
[6] = tested on: Leptinotarsa decemlineata; assay: Insecticidal activity against third-instar larval stage of Leptinotarsa decemlineata infested potato leaves assessed as mortality at 10 ul after 24 hr relative to control
[7] = tested on: Leptinotarsa decemlineata; assay: Insecticidal activity against second-instar larval stage of Leptinotarsa decemlineata infested potato leaves assessed as mortality at 20 ul after 24 hr (reference value: […] +/- 3.3%)
[8] = tested on: Leptinotarsa decemlineata; assay: Insecticidal activity against second-instar larval stage of Leptinotarsa decemlineata infested potato leaves assessed as mortality at 20 ul after 48 hr (reference value: […] +/- 3.3%)
[9] = tested on: Leptinotarsa decemlineata; assay: Insecticidal activity against first-instar larval stage of Leptinotarsa decemlineata infested potato leaves assessed as mortality at 10 ul after 96 hr relative to control
[10] = tested on: Leptinotarsa decemlineata; assay: Insecticidal activity against first-instar larval stage of Leptinotarsa decemlineata infested potato leaves assessed as mortality at 10 ul after 24 hr relative to control
[11] = tested on: Leptinotarsa decemlineata; assay: Insecticidal activity against first-instar larval stage of Leptinotarsa decemlineata infested potato leaves assessed as mortality at 20 ul after 96 hr relative to control
[12] = tested on: Leptinotarsa decemlineata; assay: Insecticidal activity against adult Leptinotarsa decemlineata infested potato leaves assessed as mortality at 10 ul after 48 hr relative to control
[13] = tested on: Leptinotarsa decemlineata; assay: Insecticidal activity against adult Leptinotarsa decemlineata infested potato leaves assessed as mortality at 20 ul after 24 hr relative to control
[14] = tested on: Leptinotarsa decemlineata; assay: Insecticidal activity against second-instar larval stage of Leptinotarsa decemlineata infested potato leaves assessed as mortality at 10 ul after 96 hr (reference value: […] +/- 3.3%)
[15] = tested on: Leptinotarsa decemlineata; assay: Insecticidal activity against second-instar larval stage of Leptinotarsa decemlineata infested potato leaves assessed as mortality at 20 ul after 96 hr (reference value: […] +/- 3.3%)
[16] = tested on: Leptinotarsa decemlineata; assay: Insecticidal activity against first-instar larval stage of Leptinotarsa decemlineata infested potato leaves assessed as mortality at 10 ul after 12 hr relative to control
[17] = tested on: Leptinotarsa decemlineata; assay: Insecticidal activity against second-instar larval stage of Leptinotarsa decemlineata infested potato leaves assessed as mortality at 10 ul after 24 hr (reference value: […] +/- 3.3%)
[18] = tested on: Leptinotarsa decemlineata; assay: Insecticidal activity against second-instar larval stage of Leptinotarsa decemlineata infested potato leaves assessed as mortality at 20 ul after 12 hr relative to control
[19] = tested on: Leptinotarsa decemlineata; assay: Insecticidal activity against third-instar larval stage of Leptinotarsa decemlineata infested potato leaves assessed as mortality at 10 ul after 96 hr (reference value: […] +/- 3.3%)
[20] = tested on: Leptinotarsa decemlineata; assay: Insecticidal activity against second-instar larval stage of Leptinotarsa decemlineata infested potato leaves assessed as mortality at 10 ul after 48 hr (reference value: […] +/- 3.3%)
[21] = tested on: Leptinotarsa decemlineata; assay: Insecticidal activity against third-instar larval stage of Leptinotarsa decemlineata infested potato leaves assessed as mortality at 20 ul after 12 hr relative to control
[22] = tested on: Leptinotarsa decemlineata; assay: Insecticidal activity against third-instar larval stage of Leptinotarsa decemlineata infested potato leaves assessed as mortality at 20 ul after 96 hr (reference value: […] +/- 3.3%)
[23] = tested on: Leptinotarsa decemlineata; assay: Insecticidal activity against adult Leptinotarsa decemlineata infested potato leaves assessed as mortality at 10 ul after 96 hr relative to control
[24] = tested on: Leptinotarsa decemlineata; assay: Insecticidal activity against second-instar larval stage of Leptinotarsa decemlineata infested potato leaves assessed as mortality at 10 ul after 12 hr relative to control
[25] = tested on: Leptinotarsa decemlineata; assay: Insecticidal activity against adult Leptinotarsa decemlineata infested potato leaves assessed as mortality at 20 ul after 48 hr relative to control
[26] = tested on: Leptinotarsa decemlineata; assay: Insecticidal activity against adult Leptinotarsa decemlineata infested potato leaves assessed as mortality at 20 ul after 12 hr relative to control
[27] = tested on: Leptinotarsa decemlineata; assay: Insecticidal activity against adult Leptinotarsa decemlineata infested potato leaves assessed as mortality at 20 ul after 96 hr relative to control
[28] = tested on: Leptinotarsa decemlineata; assay: Insecticidal activity against first-instar larval stage of Leptinotarsa decemlineata infested potato leaves assessed as mortality at 20 ul after 12 hr relative to control
[29] = tested on: Leptinotarsa decemlineata; assay: Insecticidal activity against adult Leptinotarsa decemlineata infested potato leaves assessed as mortality at 10 ul after 12 hr relative to control
[30] = tested on: Leptinotarsa decemlineata; assay: Insecticidal activity against third-instar larval stage of Leptinotarsa decemlineata infested potato leaves assessed as mortality at 10 ul after 12 hr relative to control
[31] = tested on: Leptinotarsa decemlineata; assay: Insecticidal activity against third-instar larval stage of Leptinotarsa decemlineata infested potato leaves assessed as mortality at 20 ul after 24 hr relative to control
[32] = tested on: Leptinotarsa decemlineata; assay: Insecticidal activity against adult Leptinotarsa decemlineata infested potato leaves assessed as mortality at 10 ul after 24 hr relative to control

Structure (SMILES)	mortality [1] [%]	mortality [2] [%]	mortality [3] [%]	mortality [5] [%]	mortality [6] [%]	mortality [7] [%]	mortality [8] [%]	mortality [9] [%]	mortality [10] [%]	mortality [11] [%]	mortality [12] [%]	mortality [14] [%]	mortality [15] [%]	mortality [16] [%]	mortality [17] [%]	mortality [18] [%]	mortality [19] [%]	mortality [20] [%]	mortality [21] [%]	mortality [22] [%]	other results
C/C=C(C)/C=C/C=C(C)C [ALLO-OCIMENE]	46.7	46.7	23.3	33.3	0	43.3	53.3	56.7	33.3	56.7	3.3	66.7	60	13.3	40	30	0	50	23.3	26.7	mortality [4]: 0%; mortality [13]: 20%; mortality [23]: 3.3%; mortality [24]: 23.3%; mortality [25]: 20%; mortality [26]: 3.3%; mortality [27]: 23.3%; mortality [28]: 16.7%; mortality [29]: 3.3%; mortality [30]: 0%; mortality [31]: 23.3%; mortality [32]: 3.3%
CC1=CCC2CC1C2(C)C (stereo not drawn) [ALPHA-PINENE]	63.3	56.7	30	43.3	3.3	70	80	66.7	50	66.7	100	66.7	86.7	26.7	50	20	6.7	63.3	13.3	36.7	mortality [13]: 100%; mortality [23]: 100%; mortality [24]: 26.7%; mortality [25]: 100%; mortality [26]: 96.7%; mortality [27]: 100%; mortality [28]: 13.3%; mortality [29]: 100%; mortality [30]: 3.3%; mortality [31]: 16.7%; mortality [32]: 100%
C=CC(C)CCC=C(C)C (stereo not drawn) [BETA-CITRONELLENE]	100	100	93.3	100	93.3	100	100	100	86.7	100	73.3	100	100	30	96.7	66.7	100	100	50	93.3	mortality [4]: 100%; mortality [13]: 76.7%; mortality [23]: 76.7%; mortality [24]: 43.3%; mortality [25]: 83.3%; mortality [26]: 53.3%; mortality [27]: 90%; mortality [28]: 76.7%; mortality [29]: 40%; mortality [30]: 80%; mortality [31]: 80%; mortality [32]: 73.3%
CC(C)=CCC[C@@H](C)CC=O [CITRONELLAL]	76.7	90	26.7	76.7	20	80	93.3	86.7	43.3	100	100	80	93.3	6.7	53.3	23.3	26.7	76.7	10	33.3	mortality [4]: 20%; mortality [23]: 100%; mortality [24]: 20%; mortality [25]: 80%; mortality [26]: 16.7%; mortality [27]: 86.7%; mortality [28]: 33.3%; mortality [29]: 6.7%; mortality [30]: 20%; mortality [31]: 20%; mortality [32]: 90%
C=CC(C)(CCC=C(C)C)OC(C)=O (configuration not stated) [LINALYL ACETATE]	70	93.3	76.7	63.3	30	63.3	93.3	86.7	30	69.3	16.7	86.7	93.3	16.7	36.7	30	33.3	80	30	83.3	mortality [13]: 23.3%; mortality [23]: 23.3%; mortality [24]: 20%; mortality [25]: 63.3%; mortality [26]: 10%; mortality [27]: 70%; mortality [28]: 26.7%; mortality [29]: 0%; mortality [30]: 23.3%; mortality [31]: 73.3%; mortality [32]: 0%
